From PubChem BioAssay (NCI)
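Exposure lasted 48 hours, with cells grown in 96-well plates and compounds tested at five concentrations. GI50: concentration for 50% inhibition of growth. TGI denotes the concentration required for complete inhibition of growth.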

Columns and labels:
Assay in all cases: NCI tumour cell line growth inhibition, 48 h
[1] = test system: A549 NSCLC
[2] = test system: ACHN renal
[3] = test system: BT-549 breast
[4] = test system: HCT-15 colon
[5] = test system: HOP-62 NSCLC
[6] = test system: HT29 colon
[7] = test system: MDA-MB-435
[8] = test system: SNB-75 CNS
[9] = test system: SW-620 colon
[10] = test system: SK-OV-3 ovarian

| Structure (SMILES) | TGI [1] [µM] | TGI [2] [µM] | TGI [3] [µM] | TGI [4] [µM] | TGI [5] [µM] | TGI [6] [µM] | TGI [7] [µM] | TGI [8] [µM] | TGI [9] [µM] | TGI [10] [µM] | GI50 [1] [µM] | GI50 [2] [µM] | GI50 [3] [µM] | GI50 [4] [µM] | GI50 [5] [µM] | GI50 [6] [µM] | GI50 [7] [µM] | GI50 [10] [µM] | GI50 [8] [µM] | GI50 [9] [µM] |
| --- | --- | --- | --- | --- | --- | --- | --- | --- | --- | --- | --- | --- | --- | --- | --- | --- | --- | --- | --- | --- |
| Cc1c2ccccc2cc2cccc[n+]12 | > 100 | > 100 | > 100 | > 100 | > 100 | > 100 | > 100 | 83.7 | > 100 |  |  |  |  |  |  |  |  |  |  |  |
| COc1cc2cc[n+](C)c(Cc3ccc(Oc4cc(Cc5c6cc(OC)c(OC)cc6cc[n+]5C)ccc4OC)cc3)c2cc1OC | > 100 | > 100 | > 100 | > 100 | > 100 | > 100 | > 100 | > 100 | > 100 | > 100 |  |  |  |  |  |  |  |  |  |  |
| Oc1ccc(Cl)cc1C1=Nn2c(COc3ccc4c(c3)CCCC4)nnc2SC1 | 92.9 | 49.7 | 34.6 | 36.7 | 27.5 |  | 36.1 |  | 33 | 42.4 |  |  |  |  |  |  |  |  |  |  |
| CC(NC(=O)c1ccc(OP(=O)(OCc2ccc([N+](=O)[O-])o2)N(C)CCCCCl)cc1)c1ccc(OCC2CCCCC2)c(C(N)=O)c1 (stereo not given) | > 21.4 | > 35.4 | 5.94 | 8.14 | 36.7 | 7.85 | 6.3 | 25.3 | > 43.1 | > 100 |  |  |  |  |  |  |  |  |  |  |
| COc1ccc(-n2nc(C(=O)c3ccccc3)c3nn4c(=O)cc(-c5ccccc5)nc4nc32)cc1 | > 100 | > 100 | > 100 | > 100 | > 100 | > 100 | > 100 | > 100 | > 100 | > 100 | 39.2 | 45.9 | 55.1 | 43.4 | 44.1 | 32.2 | 51.9 | 74.2 | 37.9 | 44.3 |
| CN(CCN1C(=O)c2cccc3cccc(c23)C1=O)CCN1C(=O)c2cccc3cccc(c23)C1=O | > 100 | 20.7 | > 100 | > 100 | 26.4 | > 100 | > 100 | 49.9 |  | 16.6 |  |  |  |  |  |  |  |  |  |  |
| C#C[C@]1(O)[C@@H](CO)O[C@@H](n2ccc(=O)[nH]c2=O)[C@@H]1O | > 100 | 0.602 |  |  | 1.05 | > 100 | 3 |  | > 100 | > 100 |  |  |  |  |  |  |  |  |  |  |
| O=C1/C(=C/c2ccc([N+](=O)[O-])cc2)Sc2scc(-c3cccc([N+](=O)[O-])c3)[n+]21 | 56.7 | 14 | 18.7 | 5.75 | 33.9 | 9.35 | 18.4 | 25.6 | 3.35 | 30.6 |  |  |  |  |  |  |  |  |  |  |
| C=C(CN(C)C)C(=O)c1ccccc1Cl | > 100 | 32.5 |  | 38.8 | > 100 | 34.4 |  | > 80.7 | 27.7 | > 100 |  |  |  |  |  |  |  |  |  |  |
| OC1CCSc2ccccc21 (stereo not given) | > 100 | > 100 |  | > 100 | > 100 | > 100 |  |  | > 100 | > 100 |  |  |  |  |  |  |  |  |  |  |
| COc1ccc2c3c([nH]c2c1)[C@H](C=C(C)C)N1C(=O)[C@@H]2CCCN2C(=O)[C@@H]1C3 | > 100 | > 100 | > 100 | > 100 | > 100 | > 100 | > 100 | 61 | > 100 | 95.9 |  |  |  |  |  |  |  |  |  |  |
| CC(C)C(=O)CC(c1ccc(Br)cc1)N1N=C(C(C)C)CC1c1ccc(Br)cc1 (stereo not given) | > 100 | > 100 |  | > 100 | > 100 | > 100 |  |  | > 100 | > 100 |  |  |  |  |  |  |  |  |  |  |
